# Article PMC6349869, “The palladacycle complex AJ-5 induces apoptotic cell death while reducing autophagic flux in rhabdomyosarcoma cells” (Cell Death Discovery, 2019)
# Assays:
# Assay type in all cases: cell-based, human
# SW982 cells = assay: MTT cell viability assay, SW982 synovial sarcoma; details: 48 h
# Description: RH30 human aRMS cells (kindly provided by Associate Professor Judith Davie, Southern Illinois University), AX-OH-1 human aRMS and FL-OH-1 human eRMS cells (kindly provided by Professor Stefan Bath, University of Cape Town) were cultured in Roswell Park Memorial Institute Medium (RPMI)-1640 (Sigma Aldrich, Missouri, USA). […] Cell morphology was monitored using an Olympus CKX41 inverted microscope (MSAC Ltd, UK) and imaged with an EVOS™ XL AMEX1000 Core Imaging System (Thermo Fisher Scientific, Massachusetts, USA).
# Cells were seeded in 96-well plates and treated the next day with a range of AJ-5 concentrations (0.1–1.0 μM) or vehicle ([…]) for 48 h. Cell viability was measured using the 3-(4,5-dimethylthiazol-2-yl)-2,5-diphenyl-trazolium bromide (MTT) assay (11465007001; Sigma Aldrich) according to the manufacturer’s instructions. Mean cell viability was calculated as a percentage of the mean vehicle control. At least three independent experiments in quadruplicate were performed from which the half maximal inhibitory concentration (IC50) was determined using GraphPad Prism version 6.0 (GraphPad Software, California, USA). The selectivity index (SI) was determined by dividing the IC50 of a normal cell line by the IC50 of a cancer cell line.
# [1] = system: RMS cells (RH30, AX-OH-1, RD, FL-OH-1); assay: Scratch motility assay, RMS cells; details: 24 h pre-treatment at IC50, all RMS cells tested
# Description: Cells were seeded in 6-well plates and treated with IC50 AJ-5 and vehicle for 24 h. Cells were then collected, counted and replated to achieve 100% confluency in a 24-well plate. The following day a sterile 2 µL pipette tip was used to make a vertical scratch in the cell monolayer of each well and the cells treated with 10 µM mitomycin C (M4287; Sigma Aldrich) to inhibit proliferation. Cells were imaged at 0, 3, 6, 9, 12 and 24 h post wound formation and ImageJ v1.50i[58] was used to calculate the area of the scratch. The total areas migrated was determined by subtracting the area for a specific time point from the area measured at 0h.
# RH30 and RD cells = assay: Cell cycle analysis (FACS, PI) and cyclin western blots
# Description: Cells were lysed at 4 °C in whole-cell lysis buffer (0.125 M Tris-HCl pH 6.8, 4% SDS, 0.2% glycerol, 0.1% β-mercaptoethanol and a pinch of bromophenol blue) and boiled for 10 min. Proteins were resolved by SDS-PAGE (6–15% gels) and transferred to Hybond ECL membranes (Amersham, UK). The membranes were incubated with primary antibodies: rabbit polyclonal antibodies to phospho-histone H2A.X (Ser139) (#2577), phospho-chk2 (Thr68) (#221), phospho-p38 MAPK (Thr180/Tyr182) (#9211), cleaved caspase-3 (Asp175) (#9661), PARP (#9542), caspase-9 (#9502), LC3B (#2775), p38 MAPK (#9212), rabbit monoclonal antibody to cleaved caspase-7 (Asp198) (D6H1) (#8438), mouse monoclonal antibodies to phospho-ATM (Ser1981) (D6H9) (#5883), Cyclin B1 (V152) (#4135), Caspase-8 (1C12) (#9746), SQSTM1/p62 (D5L7G) (#88588) from Cell Signaling Technology (Massachusetts, USA); mouse monoclonal antibody to p53 (DO-1) (sc-126), rabbit polyclonal antibodies to p21 (C-19) (sc-397), cyclin A (H-432) (sc-751), cyclin B1 (H-433)(sc-752), PARP-1 (H-250) (sc-7150) from Santa Cruz Biotechnology (Texas, USA); rabbit polyclonal antibody to p38 MAP kinase (M0800) from Sigma Aldrich. […] Densitometry readings were obtained using ImageJ v1.50i[58] and protein expression levels were represented as a ratio of protein of interest/p38 loading control normalized to the vehicletreated control sample where appropriate. […]
# [2] = system: RMS cells (RH30, AX-OH-1, RD, FL-OH-1); assay: Clonogenic assay, RMS cells
# Description: Cells were seeded in 6-well plates and treated the following day with IC50, ½ IC50, ¼ IC50 AJ-5 and vehicle. After 24 h, 800–4000 cells were seeded in 35 mm dishes in drug-free medium. Formation of colonies were monitored and after 7–21 days cells were fixed with 3:1 methanol:acetic acid and stained with 0.5% crystal violet (Sigma Aldrich) in 100% methanol. Colonies were imaged and percentage colony area was determined using ImageJ v1.50i[58] and the plugin ColonyArea[59]. Colony area was determined for each drug concentration and expressed as a percentage of vehicletreated control.
# MG-63 cells = assay: MTT cell viability assay, MG-63 osteosarcoma; details: 48 h
smiles,measurement,setting,value
CC(C)c1cccc(C(C)C)c1[N+]1=Cc2cccc[c]2[Pd-2]1([Cl])[P+](CC[P+](c1ccccc1)(c1ccccc1)[Pd-2]1([Cl])[c]2ccccc2C=[N+]1c1c(C(C)C)cccc1C(C)C)(c1ccccc1)c1ccccc1 (stereo not shown) [AJ-5],IC50,SW982 cells,< 300 nM
same,Migratory ability (area migrated),[1],reduced the migratory ability
same,Cell cycle progression,"RH30 and RD cells; IC50, 24 and 48 h, FACS",induces a G1 cell cycle arrest
same,Levels of cyclin A and cyclin B,RH30 and RD cells; western blotting,decrease
same,Colony formation at IC50 concentrations,"[2]; 24 h treatment at IC50, colonies after 7–21 days",only a few or no RMS cell colonies formed
same,Ability of RMS cells to survive and proliferate (colony area),"[2]; 24 h treatment with ¼ IC50, ½ IC50 or IC50, colonies after 7–21 days",significantly inhibits the ability of RMS cells to survive and proliferate
same,IC50,MG-63 cells,< 300 nM
